Source: US20030034248A1, “Electrodeposition baths containing boron-containing compounds and methods related thereto” (priority 2001, published 2003)

System: bacteria
Test: Bacteria resistance testing: bacteria counts (spread plate, R2A agar) in infected electrodeposition ultrafiltrate permeate
Type: cell-based
Conditions: for Bacteria Count 3 day: plated at 3 days; for Bacteria Count 7 day: plated at 7 days; for Bacteria Count 10 day: plated at 10 days
Method: Infected ultrafiltrate from an online electrodeposition bath tank (containing E6100H, commercially available from PPG Industries, Inc.) having a bacterial count of 4.5×10^6 cfu/mL was used to inoculate filter-sterilized ultrafiltrate (“permeate”) collected from the same line. The infected ultrafiltrate was diluted by a factor of 10^4 into the sterile permeate. The infected permeate was added to reactors. The various acids listed below in the following Table 2 were prepared as 1 % solutions in water and tested at 2000, 1000, 500, 200, 100, and 50 ppm of active material. Reactors were rolled for 10 days at 32° C. and were plated for bacteria counts at 3, 7, and 10 days.
The enumeration of […] heterotrophs in the reactors utilized the standard spread plate method as described in Standard Methods for the Examination of Water and Wastewater, 1992, section 9215C. Bacterial counts were examined using R2A agar plates. 100 μL of a suitable dilution of sample was pipetted onto the surface of the media and spread with an alcohol and flame sterilized glass rod. The plates were inverted and incubated for 3 days at 32° C. with periodic examination. Colony forming units were counted on a New Brunswick Bactronic Colony Counter. A target of 30 to 300 cfu per plate was considered a valid count.

[1] = acid at 50 ppm of active material (boric acid: 8.9 ppm B), 32° C.
[2] = acid at 100 ppm of active material (boric acid: 17.8 ppm B), 32° C.
[3] = acid at 200 ppm of active material (boric acid: 35.5 ppm B), 32° C.
[4] = acid at 500 ppm of active material (boric acid: 89 ppm B), 32° C.
[5] = acid at 1000 ppm of active material (boric acid: 177.5 ppm B), 32° C.
[6] = acid at 2000 ppm of active material (boric acid: 355 ppm B), reactors rolled at 32° C.

SMILES	Bacteria Count 3 day [1]	Bacteria Count 7 day [1]	Bacteria Count 10 day [1]	Bacteria Count 3 day [2]	Bacteria Count 7 day [2]	Bacteria Count 10 day [2]	Bacteria Count 3 day [3]	Bacteria Count 7 day [3]	Bacteria Count 10 day [3]	Bacteria Count 3 day [4]	Bacteria Count 7 day [4]	Bacteria Count 10 day [4]	Bacteria Count 3 day [5]	Bacteria Count 7 day [5]	Bacteria Count 10 day [5]	Bacteria Count 3 day [6]	Bacteria Count 7 day [6]	Bacteria Count 10 day [6]	levels at which the growth of bacteria is retarded (as compared to lactic acid in an analogous composition, summary of Table 2) [ppm]
OB(O)O [Boric Acid]	8.8 × 10^2	4.6 × 10^6	4.0 × 10^3	3.0 × 10^2	5.6 × 10^5	1.4 × 10^7	3.6 × 10^2	2.8 × 10^3	2.0 × 10^6	<4.0 × 10^1	<4.0 × 10^1	<4.0 × 10^1	<4.0 × 10^1	<4.0 × 10^1	<4.0 × 10^1	<4.0 × 10^1	<4.0 × 10^1	<4.0 × 10^1	≥ 500
CC(O)C(=O)O (stereo not shown) [Lactic Acid, reference compound]	9.2 × 10^5	4.4 × 10^7	3.8 × 10^7	8.8 × 10^5	4.4 × 10^7	2.4 × 10^6	1.5 × 10^6	1.6 × 10^7	1.2 × 10^7	1.6 × 10^7	4.0 × 10^7	2.8 × 10^6	9.6 × 10^6	3.2 × 10^7	<4.0 × 10^5	2.1 × 10^6	4.8 × 10^7	1.1 × 10^7	
